“And” between values parts separate entries of the source, which are not always exact repeats. Identical values can stand only once. Each block holds one molecule with its values, some of them ahead of it.
Assay: solvent given as SMILES

Compound: CN(C)c1ccc(/C=C/C=C2\CC/C(=C\C=C\c3ccc(N(C)C)cc3)C2=O)cc1
absorption maximum (in C1CCCCC1): 480 nm
absorption maximum (in CC#N): 490 nm
absorption maximum (in CC(C)=O): 493 nm
absorption maximum (in CC(C)O): 515 nm
absorption maximum (in CCCCCC): 478 nm
absorption maximum (in CCCCO): 524 nm
absorption maximum (in CCCO): 515 nm
absorption maximum (in CCO): 510 nm
absorption maximum (in CCOC(C)=O): 480 nm
absorption maximum (in CCOCC): 475 nm
absorption maximum (in CN(C)C=O): 507 nm
absorption maximum (in CO): 523 nm
absorption maximum (in CS(C)=O): 512 nm
absorption maximum (in Cc1ccccc1): 495 nm
absorption maximum (in ClC(Cl)(Cl)Cl): 465 nm
absorption maximum (in ClCCl): 503 nm
absorption maximum (in OCC(F)(F)F): 534 nm
absorption maximum (in S=C=S): 480 nm
absorption maximum (in c1ccccc1): 475 nm
absorption maximum (in c1ccncc1): 507 nm

Compound: CCC1=C(C)c2cc3c(OC)cc(OC)cc3c(=O)n2C1=O
absorption maximum (in CC#N): 433 nm
absorption maximum (in CO): 433 nm
absorption maximum (in CS(C)=O): 434 nm
absorption maximum (in ClC(Cl)Cl): 434 nm

Compound: CC1=CC(C)=[N+]2C1=C(c1ccccc1)c1c(C)c(-c3cccs3)c(C)n1[B-]2(F)F
absorption maximum (in CO): 507 nm
absorption maximum (in Cc1ccccc1): 513 nm
absorption maximum (in ClCCl): 511 nm

Compound: CCCCCc1c(Oc2cc(O)cc(CCC(=O)CC)c2C(=O)OC)c(OC)cc(O)c1C(=O)O
absorption maximum (in ClC(Cl)Cl): 312 nm

Compound: CN(C)c1ccc(/C=C/c2cc(/C=C/c3ccc(N(C)C)cc3)nc(/C=C/c3ccccc3)n2)cc1
absorption maximum (in ClCCl): 423 nm

Compound: CC(C)(C)c1ccc2c(c1)c1cc(C(C)(C)C)ccc1n2-c1ccc(C(=C(C#N)C#N)c2ccc(-n3c4ccc(C(C)(C)C)cc4c4cc(C(C)(C)C)ccc43)cc2)cc1
absorption maximum (in Cc1ccccc1): 438 nm

Compound: CC1(C)c2ccccc2N(c2ccc(-c3ccc(C#N)c(C#N)n3)cc2)c2ccccc21
absorption maximum (in Cc1ccccc1): 404 nm

Compound: COc1ccc(C2=[N+]3C(=Nc4c(-c5cc(OC)c(OC)c(OC)c5Br)c(-c5ccc(C(C)(C)C)cc5)c(-c5ccc(OC)cc5)n4[B-]3(F)F)C(c3cc(OC)c(OC)c(OC)c3Br)=C2c2ccc(C(C)(C)C)cc2)cc1
absorption maximum (in Cc1ccccc1): 706 nm

Compound: F[B-]1(F)Oc2ccccc2-c2nc(-c3ccccc3)c3cc(Cl)ccc3[n+]21
absorption maximum (in Cc1ccccc1): 395 nm

Compound: CCOC(=O)c1ccc(C2CC(c3cccc4ccccc34)=NN2c2ccc(OC)cc2)cc1 (stereo not drawn)
absorption maximum (in ClCCl): 383 nm

Compound: CC(C)(C)c1ccc2c(c1)c1cc(C(C)(C)C)ccc1n2-c1ccc(-c2nc(-c3ccc(-n4c5ccc(C(C)(C)C)cc5c5cc(C(C)(C)C)ccc54)cc3)nc(-c3ccc(P(=O)(c4ccccc4)c4ccccc4)cc3)n2)cc1
absorption maximum (in C1CCOC1): 386.93 nm
absorption maximum (in CC#N): 380.02 nm
absorption maximum (in CC(C)=O): 380.02 nm
absorption maximum (in CN(C)C=O): 384.45 nm
absorption maximum (in Cc1ccccc1): 393.2 nm
absorption maximum (in ClC(Cl)Cl): 430.07 nm
absorption maximum (in ClCCl): 382.72 nm

Compound: CCCCC[n+]1ccc(/C=C/c2ccc(N(C)C)c3ccccc23)c2ccccc21
absorption maximum (in C1CCOC1): 502 nm
absorption maximum (in C1COCCO1): 495 nm
absorption maximum (in CC#N): 496 nm
absorption maximum (in CC(C)=O): 503 nm
absorption maximum (in CCCCO): 522 nm
absorption maximum (in CCO): 508 nm
absorption maximum (in CN(C)C=O): 501 nm
absorption maximum (in CO): 503 nm
absorption maximum (in CS(C)=O): 506 nm
absorption maximum (in ClC(Cl)Cl): 522 nm
absorption maximum (in O): 452 nm
absorption maximum (in c1ccccc1): 494 nm
absorption maximum (in c1ccncc1): 526 nm

Compound: CN(C)c1ccc(-c2ccc(-c3cc(N4CCCCC4)c(C#N)c4c3-c3ccccc3CC4)s2)cc1
absorption maximum (in C1CCCCC1): 368 nm
absorption maximum (in C1CCOC1): 350 nm
absorption maximum (in CN(C)C=O): 384 nm
absorption maximum (in CS(C)=O): 379 nm
absorption maximum (in Cc1ccccc1): 377 nm
absorption maximum (in ClC(Cl)Cl): 377 nm

Compound: CCc1c(C)c2n(c1C)[B-](F)(F)[N+]1=C(NCc3ccc(OC)cc3)C(SC#N)=CC1=C2C
absorption maximum (in CC#N): 562 nm
absorption maximum (in CCCCCC): 572 nm
absorption maximum (in CCOC(C)=O): 565 nm
absorption maximum (in CO): 562 nm
absorption maximum (in ClCCl): 568 nm

Compound: CCN(CC)c1ccc(/C=C/c2ccc(-c3ccc(/C=C/c4ccc(N(CC)CC)cc4)s3)s2)cc1
absorption maximum (in Cc1ccccc1): 467.9 nm

Compound: c1ccc(-c2ccc(-c3nc(-n4c5ccccc5c5ccc6c7ccccc7n(-c7ccccc7)c6c54)nc(-n4c5ccccc5c5ccc6c7ccccc7n(-c7ccccc7)c6c54)n3)cc2)cc1
absorption maximum (in Cc1ccccc1): 403 nm

Compound: CCN(CC)c1ccc2cc(-c3ccc(S(C)(=O)=O)cc3)oc(=O)c2c1
absorption maximum (in CC(C)=O): 375 nm
absorption maximum (in CCCCCC): 373 nm
absorption maximum (in CCCCO): 378 nm
absorption maximum (in CCCO): 378 nm
absorption maximum (in CCO): 376 nm
absorption maximum (in CCOC(C)=O): 374 nm
absorption maximum (in CN(C)C=O): 379 nm
absorption maximum (in CO): 376 nm
absorption maximum (in ClC(Cl)Cl): 383 nm

Compound: O=C1C=Cc2cc3ccccc3c(=O)n21
absorption maximum (in CC#N): 351 nm
absorption maximum (in CO): 349 nm
absorption maximum (in CS(C)=O): 357 nm
absorption maximum (in ClC(Cl)Cl): 353 nm

Compound: Nc1cccc2cc3ccccc3cc12
absorption maximum (in C1CCCCC1): 384.17 nm

Compound: Cc1ccc(C2=C3C=c4c(oc5ccccc45)=[N+]3[B-](F)(F)n3c2cc2c4ccccc4oc23)cc1
absorption maximum (in C1CCCCC1): 584.5 nm
absorption maximum (in C1CCOC1): 581.5 nm
absorption maximum (in CC#N): 578 nm
absorption maximum (in CCOC(C)=O): 579.5 nm
absorption maximum (in CN(C)C=O): 581.5 nm
absorption maximum (in CO): 578 nm
absorption maximum (in Cc1ccccc1): 588 nm
absorption maximum (in ClCCl): 584 nm and 583 nm

Compound: CC1=CC(C)=[N+]2C1=C(c1ccc(I)cc1)c1c(C)cc(C)n1[B-]2(OC(C)C)OC(C)C
absorption maximum (in ClC(Cl)Cl): 504 nm

Compound: CCCCOc1cc2ccccc2c2c1oc1cc3ccccc3cc12
absorption maximum (in C1CCOC1): 351 nm

Compound: COc1cc(OC)c2c(c1)c1c(c3ccc(C(C)(C)C)cc32)=[N+]2C(=Nc3c(-c4cc(OC)c(OC)c(OC)c4)c4c5cc(OC)cc(OC)c5c5cc(C(C)(C)C)ccc5c4n3[B-]2(F)F)C=1c1cc(OC)c(OC)c(OC)c1
absorption maximum (in Cc1ccccc1): 791 nm

Compound: Cc1ccc(/C2=c3\cc/c(o3)=C(\c3ccc(C)cc3)c3ccc([nH]3)-c3ccc4n3[B-](F)(F)[N+]3=C(C=CC3=C4c3cccs3)c3ccc2[nH]3)cc1
absorption maximum (in ClC(Cl)Cl): 709 nm

Compound: Cc1ccc(C2=C3C=CC(=[N+](C)C)C=C3[Si](C)(C)c3cc(N(C)C)ccc32)c(C)c1
absorption maximum (in O): 646 nm

Compound: N#C/C(=C/Nc1ccc(C#N)cc1)c1nc(-c2ccccc2)cs1
absorption maximum (in CC#N): 372 nm
absorption maximum (in CCO): 373 nm
absorption maximum (in CN(C)C=O): 376 nm
absorption maximum (in Cc1ccccc1): 377 nm
absorption maximum (in ClCCl): 375 nm

Compound: Cc1ccc(-c2nc(-c3cccc(O)c3)[nH]c2-c2ccc(C)cc2)cc1
absorption maximum (in CO): 300 nm

Results, then the molecule that gave them:

absorption maximum (in CC1CCCO1): 476 nm
Compound: O=c1cc2cc(O)c3cc(O)cc4ccc(o1)c2c43

absorption maximum (in CN(C)C=O): 400 nm
Compound: O=C([O-])c1c2ccccc2c(C(=O)[O-])c2ccccc12

absorption maximum (in ClCCl): 310 nm
Compound: c1ccc(N2c3ccccc3C3(c4ccccc4-c4ccccc43)c3ccccc32)cc1

absorption maximum (in C1CCCCC1): 523.5 nm
absorption maximum (in CC#N): 516.5 nm
absorption maximum (in CCO): 518 nm
absorption maximum (in CCOC(C)=O): 517 nm
absorption maximum (in CO): 516.5 nm
absorption maximum (in OCC(F)(F)F): 513 nm
Compound: Cc1ccc(C2=C3C=C(I)C=[N+]3[B-](F)(F)n3cccc32)cc1

absorption maximum (in CN(C)C=O): 645 nm
absorption maximum (in ClC(Cl)Cl): 643 nm
Compound: CC(C)(C)c1cc(C(C)(C)C)c2oc3c(c2c1)C=CN1C(=O)C2=C4c5oc6c(C(C)(C)C)cc(C(C)(C)C)cc6c5C=CN4C(=O)C2=C31

absorption maximum (in O): 210 nm
Compound: CC(=O)[O-]

absorption maximum (in ClCCl): 420 nm
Compound: CCCCC(CC)Cn1c2cc(C#N)c(-c3ccc(N(c4ccccc4)c4ccccc4)cc3)cc2c2cc(-c3ccc(N(c4ccccc4)c4ccccc4)cc3)c(C#N)cc21 (stereo not drawn)

absorption maximum (in CC#N): 408 nm
Compound: Oc1ccc2ccccc2c1/C=N/CC/N=C/c1c(O)ccc2ccccc12

absorption maximum (in CS(C)=O): 404 nm
Compound: CCCCCCCCn1c2ccccc2c(=O)c2ccccc21

absorption maximum (in CC#N): 341 nm
absorption maximum (in CCCCOCCCC): 341 nm
absorption maximum (in CO): 340 nm
Compound: Clc1nc(Cl)nc(Nc2ccc3ccc4cccc5ccc2c3c45)n1

absorption maximum (in C1CCOC1): 358 nm
Compound: N#Cc1c(N2CCCCC2)cc(-c2ccccc2)c2c1Cc1ccccc1-2

absorption maximum (in ClC(Cl)Cl): 561 nm
Compound: CCCCCCCCN1C(=O)c2ccc3c4c(-c5ccc(-n6c7ccccc7c7ccccc76)cc5)cc5c6c(ccc(c7c(-c8ccc(-n9c%10ccccc%10c%10ccccc%109)cc8)cc(c2c37)C1=O)c64)C(=O)N(CCCCCCCC)C5=O

absorption maximum (in ClCCl): 418 nm
Compound: O=Cc1ccc(/C=C/c2nc(N3CCOCC3)c3c([n+]2[O-])CCCC3)cc1

absorption maximum (in ClCCl): 416 nm
Compound: [O-][n+]1c(/C=C/c2ccccc2)nc(Nc2ccccc2)c2c1CCCC2

absorption maximum (in CC#N): 306 nm
Compound: COc1cc(/C=C/c2ccccc2)cc(OC)c1

absorption maximum (in CC#N): 474 nm
absorption maximum (in CCCCCC): 517 nm
absorption maximum (in CCOC(C)=O): 506 nm
absorption maximum (in CO): 480 nm
absorption maximum (in ClCCl): 508 nm
Compound: COc1ccc2n1[B-](F)(F)[N+]1=C(SC#N)C=CC1=C2c1ccccc1

absorption maximum (in CC#N): 683 nm
Compound: CN1/C(=C\C=C\C2=C3C=CC(c4ccccc4)=[N+]3[B-](F)(F)n3c2ccc3-c2ccccc2)Sc2ccccc21

absorption maximum (in CC#N): 370 nm
absorption maximum (in ClCCCl): 368 nm
Compound: Cc1ccc2nc3c(=O)[nH]c(=O)[nH]c3nc2c1

absorption maximum (in ClCCl): 351 nm
Compound: CCOC(=O)c1c(C(=O)OC)c(-c2cc3cc(OC)ccc3oc2=O)nn1-c1ccccc1

absorption maximum (in O): 536 nm
Compound: CCn1c2ccc(S(=O)(=O)O)cc2c(=O)c2cc3c(cc21)c(=O)c1cc(S(=O)(=O)O)ccc1n3CCCCCC(=O)O

absorption maximum (in ClCCl): 359 nm and 380 nm
Compound: CCCCCC(=O)c1cccc2sc3c(c12)P(=O)(c1ccccc1)c1ccccc1-3 (stereo not drawn)

absorption maximum (in ClCCl): 387 nm
Compound: CCCCC(CC)Cn1c2cc(C#N)ccc2c2ccc(C#N)cc21 (stereo not drawn)

absorption maximum (in ClCCl): 332 nm
Compound: CC(C)(C)c1ccc(-c2nc3c4ccccc4c4ccccc4c3n2-c2ccc(-c3ccc(N(c4ccccc4)c4ccccc4)cc3)cc2)cc1

absorption maximum (in ClCCl): 380 nm
Compound: COc1ccc(-c2cc3c(ccc4sc5ccc6sc(-c7ccc(C(C)=O)cc7)cc6c5c43)s2)cc1

absorption maximum (in ClC(Cl)Cl): 661 nm
Compound: CN1C(=CC2=C([S-])C(=Cc3sc4ccccc4[n+]3C)C2=O)C(C)(C)c2ccccc21

— the Deep4Chem optical property database
